From doi:10.1101/2023.04.24.538046v2 (biorxiv, 2023)

Target: TcMIP (Trypanosoma cruzi, UniProt Q09734)
Assay: biochemical

Chain of TcMIP (Q09734 30-196 limits assumed): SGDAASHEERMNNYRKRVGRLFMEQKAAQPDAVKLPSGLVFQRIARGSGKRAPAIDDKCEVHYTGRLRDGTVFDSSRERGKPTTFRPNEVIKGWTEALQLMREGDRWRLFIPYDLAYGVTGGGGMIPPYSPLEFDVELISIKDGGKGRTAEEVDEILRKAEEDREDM

| SMILES | Kd [nM] |
| --- | --- |
| O=C1[C@@H]2CCC[C@H]([C@@H](CO)CN1Cc1ccccn1)N2S(=O)(=O)c1cc(Cl)cc(Cl)c1 [JK095, (1S,5S,6R)-10-((3,5-dichlorophenyl)sulfonyl)-5-(hydroxymethyl)-3-(pyridin-2-ylmethyl)-3,10-diazabicyclo [4.3.1]decan-2-one] | 599 ± 25.5 |
| C[C@@H](c1ccccn1)N1C[C@H](CO)[C@H]2CCC[C@@H](C1=O)N2S(=O)(=O)c1cc(Cl)cc(Cl)c1 [JK236] | 45.5 ± 9.2 |
